Drawing on patent US20260265244A1, “HETEROCYCLIC COMPOUNDS AS STING ANTAGONISTS” (Boehringer Ingelheim International GmbH, priority 2022, published 2026), this text covers DSF for 18 compounds.

The target of this assay is T1, cGAMP binding domain of wild-type (GRR) human STING, residues 155-341 (Homo sapiens, UniProt Q86WV6, H232R).
T1 construct: His-TEV-hSTING (WT); TEV protease cleavage site (N); made in house; host or cells: E. coli BL21 DE3
T1 sequence (Q86WV6 with tags, fused parts or gaps H232R): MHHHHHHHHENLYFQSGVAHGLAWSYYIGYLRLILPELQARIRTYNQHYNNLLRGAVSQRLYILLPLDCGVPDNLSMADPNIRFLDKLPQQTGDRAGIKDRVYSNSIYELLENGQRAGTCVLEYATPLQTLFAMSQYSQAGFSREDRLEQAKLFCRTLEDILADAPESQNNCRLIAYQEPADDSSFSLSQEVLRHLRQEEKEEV
Description: Increase of stability of STING protein against thermal denaturation, Differential Scanning Fluorimetry (DSF). The procedure: Dye fluorescence is quenched in aqueous environment and increases upon association of the dye with the hydrophobic parts of the unfolding protein. […] The inflection point of the curve represents the “melting” temperature of the protein (Tm) which is calculated numerically using the Boltzmann equation.
Method: The thermal stability of the STING protein was measured using a specific expression construct of the cGAMP binding domain of wild-type (GRR) human STING comprising residues 155-341 and a N-terminal 8×His-tag (SEQ ID NO: 3) in assay buffer containing 20 mM Tris, 150 mM NaCl at pH7.5.
The assay uses Hard-Shell® PCR Plates 384-Well CLR/WHT (Catalog #HSP3805, BIO-RAD), Microseal® ‘B’ Adhesive Seals for PCR Plates (Catalog #MSB-1001, BIO-RAD) and was run on a CFX384 Real-Time System (Bio-Rad).
A DMSO stock solution of SYPRO orange (SIGMA S5692-500UL) was prepared.
Compound stock solutions (10 mM in DMSO) were diluted 1:2 in DMSO to an intermediate compound concentration of 5 mM and then further diluted 1:40 in assay buffer resulting in a compound concentration of 125 μM and 2.5% DMSO.
Fluorescent dye stock solution (5000×SYPRO Orange) was then mixed with target protein and buffer to a concentration of 15 uM Protein and 25×SYPRO Orange. 2 ul of this protein-dye-mixture was added to 8 ul compound solution. Final volume was 10 uL. 3-6 well positions were used as negative control (protein with 2% DMSO). The plates were prepared for duplicate measurement and centrifuged for 2 min at 1000 g. In the measurement, 160 cycles of 0.5° C. were used (temperature ramp 15 s/cycle, 15° C. to 95° C.).
Final Assay concentrations for compound characterization were as follows: 100 uM compound, 3 uM target protein, 5×SYPRO Orange, 2% DMSO in 10 ul. All dispensing steps were performed using a HamiltonStar pipetting robot (Hamilton).
Dissociation curves were processed in Bio-Rad CFX Manager. Peak type was set to “negative”. Compound codes for screen were assigned in the plate layout.
Two replicates of TM measurements were averaged, and the standard deviation was calculated. In cases of SD>1.5° C. the measurement was repeated.
The melting point (Tm) obtained for STING protein alone was subtracted from T obtained for protein incubated with ligand to generate ΔTm values.
Protein production and purification: The protein used for the biophysical experiments was a recombinant human STING protein comprising its cytosolic ectodomain. A codon optimized DNA sequence (for expression in Escherichia coli) encoding amino acid residues 155 to 341 (Swiss Prot Q86WV6) of human STING (WT) was synthesized by GeneArt (Regensburg, Germany) and inserted into a pET17b E. coli expression vector. The protein construct encodes an N-terminal 8×His-tag (SEQ ID NO: 3) followed by tobacco etch virus protease (TEV) cleavage site and the above STING gene sequence. The resulting protein sequence for the used STING variant is listed below:
For expression of recombinant human STING above construct was transformed into E. coli BL21 DE3 strain and grown in shake flasks in LB-medium at 37° C. Expression was induced by addition of isopropyl β-D-1-thiogalactopyranoside to a final concentration of 1 mM and cultures shaken overnight. Cell pellets were centrifuged and stored at −70° C. until further use. Protein was purified by cell thawing in lysis buffer (20 mM TRIS-HCl, pH 8, 300 mM NaCl, 2 mM mercaptoethanol, 20 mM imidazole, Complete Protease Inhibitor (Roche) and DNase (Roche)), followed by metal affinity purification using Ni-NTA resins and elution buffer consisting of 20 mM TRIS-HCl, pH 8, 300 mM NaCl, 2 mM mercaptoethanol, 300 mM imidazole and size exclusion chromatography in running buffer (20 mM TRIS-HCl, pH 8, 100 mM NaCl, 2 mM DTT). The peak fraction was collected and concentrated to 2.5 mg/mL.
(In general: In DSF a fluorescence change marks the thermal transition of the protein.)
With `Cc1nc2nn(CCCN3CCN(C)CC3)cc2cc1-n1nc(-c2cccc3nn(C[C@H](O)c4ccccc4)cc23)c(C(C)C)c1C` [Example 7, (1R)-2-[4-(5-methyl-1-{6-methyl-2-[3-(4-methylpiperazin-1-yl)propyl]-2H-pyrazolo[3,4-b]pyridin-5-yl}-4-(propan-2-yl)-1H-pyrazol-3-yl)-2H-indazol-2-yl]-1-phenylethan-1-ol], the DSF is 25 K. To `Cc1nc2nn(CCCN3CCC(F)(F)C3)cc2cc1-n1nc(-c2cccc3nn(C[C@H](O)c4ccccc4)cc23)c(C(C)C)c1C` [Example 40, (1R)-2-[4-(1-{2-[3-(3,3-difluoropyrrolidin-1-yl)propyl]-6-methyl-2H-pyrazolo[3,4-b]pyridin-5-yl}-5-methyl-4-(propan-2-yl)-1H-pyrazol-3-yl)-2H-indazol-2-yl]-1-phenylethan-1-ol] belongs 27 K. To `Cc1nc2nn(Cc3cnn(C)c3)cc2cc1-n1nc(-c2cccc3nn(C[C@H](O)c4ccccc4)cc23)c(C(C)C)c1C` [Example 24, (1R)-2-[4-(5-methyl-1-{6-methyl-2-[(1-methyl-1H-pyrazol-4-yl)methyl]-2H-pyrazolo[3,4-b]pyridin-5-yl}-4-(propan-2-yl)-1H-pyrazol-3-yl)-2H-indazol-2-yl]-1-phenylethan-1-ol] belongs 30 K; to `CC(C)c1nc2nn(C)cc2cc1-c1nc(-c2cccc3nn(CS(=O)(=O)c4ccccc4)cc23)c(C2CC2)n1C` [Example 96, 2-[(Benzenesulfonyl)methyl]-4-{5-cyclopropyl-1-methyl-2-[2-methyl-6-(propan-2-yl)-2H-pyrazolo[3,4-b]pyridin-5-yl]-1H-imidazol-4-yl}-2H-indazole], 29 K. To `Cc1nc2nn(C(C)C)cc2cc1-n1nc(-c2cccc3nn(C[C@H](O)c4ccccc4)cc23)c(C(C)C)c1C` [Example 18, (1R)-2-(4-{5-methyl-1-[6-methyl-2-(propan-2-yl)-2H-pyrazolo[3,4-b]pyridin-5-yl]-4-(propan-2-yl)-1H-pyrazol-3-yl}-2H-indazol-2-yl)-1-phenylethan-1-ol] belongs 28 K. On to `Cc1c(C(C)C)c(-c2cccc3nn(C[C@H](O)c4ccc(OCCN5CCOCC5)cc4)cc23)nn1-c1cc2cn(C)nc2nc1C1CC1` [Example 15, (1R)-2-[4-(1-{6-cyclopropyl-2-methyl-2H-pyrazolo[3,4-b]pyridin-5-yl}-5-methyl-4-(propan-2-yl)-1H-pyrazol-3-yl)-2H-indazol-2-yl]-1-{4-[2-(morpholin-4-yl)ethoxy]phenyl}ethan-1-ol], for which the DSF amounted to 30 K.

Take `Cc1c(C(C)C)c(-c2cccc3nn(C[C@H](O)c4ccccc4)cc23)nn1-c1cc2cn(C)nc2nc1C1CCOC1` (stereo partly drawn) [Example 47, (1R)-2-(4-{5-methyl-1-[2-methyl-6-(oxolan-3-yl)-2H-pyrazolo[3,4-b]pyridin-5-yl]-4-(propan-2-yl)-1H-pyrazol-3-yl}-2H-indazol-2-yl)-1-phenylethan-1-ol]: the DSF worked out at 30 K.

On to `CNC(=O)CO[C@@H](Cn1cc2c(-c3nn(-c4cc5cn(C)nc5nc4C)c(C)c3C(C)C)cccc2n1)c1ccccc1` [Example 36, 2-[(1R)-2-[4-(1-{2,6-dimethyl-2H-pyrazolo[3,4-b]pyridin-5-yl)-5-methyl-4-(propan-2-yl)-1H-pyrazol-3-yl)-2H-indazol-2-yl]-1-phenylethoxy]-N-methylacetamide], for which the DSF is on record as 24 K.

In turn, `CCO[C@@H](Cn1cc2c(-c3nn(-c4cc5cn(C)nc5nc4C)c(C)c3C(C)C)cccc2n1)c1ccccc1` [Example 30, 4-(1-{2,6-dimethyl-2H-pyrazolo[3,4-b]pyridin-5-yl}-5-methyl-4-(propan-2-yl)-1H-pyrazol-3-yl)-2-[(2R)-2-ethoxy-2-phenylethyl]-2H-indazole] yielded a DSF of 25 K.

`Cc1nc2nn(C)cc2cc1-n1nc(-c2cccc3nn(C[C@H](O)c4ccc(F)c(F)c4)cc23)c(C(C)C)c1C` [Example 44, (1R)-1-(3,4-difluorophenyl)-2-[4-(1-{2,6-dimethyl-2H-pyrazolo[3,4-b]pyridin-5-yl}-5-methyl-4-(propan-2-yl)-1H-pyrazol-3-yl)-2H-indazol-2-yl]ethan-1-ol] came in with a DSF of 26 K. For `COCCn1cc2cc(-n3nc(-c4cccc5nn(C[C@H](O)c6ccccc6)cc45)c(C(C)C)c3C)c(C)nc2n1` [Example 16, (1R)-2-(4-{1-[2-(2-methoxyethyl)-6-methyl-2H-pyrazolo[3,4-b]pyridin-5-yl]-5-methyl-4-(propan-2-yl)-1H-pyrazol-3-yl}-2H-indazol-2-yl)-1-phenylethan-1-ol] the value was 28 K. In turn, `Cc1c(C(C)C)c(-c2cccc3nn(C[C@H](O)c4ccccc4)cc23)nn1-c1cc2cn(C)nc2nc1C1CCOCC1` [Example 73, (1R)-2-(4-{5-methyl-1-[2-methyl-6-(oxan-4-yl)-2H-pyrazolo[3,4-b]pyridin-5-yl]-4-(propan-2-yl)-1H-pyrazol-3-yl}-2H-indazol-2-yl)-1-phenylethan-1-ol] displayed a DSF of 28 K.

`Cc1c(C(C)C)c(-c2cccc3nn(C[C@H](O)c4ccccc4)cc23)nn1-c1cc2cn(C)nc2nc1CO` [Example 106, (1R)-2-(4-{1-[6-(hydroxymethyl)-2-methyl-2H-pyrazolo[3,4-b]pyridin-5-yl]-5-methyl-4-(propan-2-yl)-1H-pyrazol-3-yl}-2H-indazol-2-yl)-1-phenylethan-1-ol] yielded a DSF of 28 K. For `Cc1c(C(C)C)c(-c2cccc3nn(C[C@H](O)c4ccccc4)cc23)nn1-c1cc2cn(C)nc2nc1C(F)F` [Example 64, (1R)-2-(4-{1-[6-(difluoromethyl)-2-methyl-2H-pyrazolo[3,4-b]pyridin-5-yl]-5-methyl-4-(propan-2-yl)-1H-pyrazol-3-yl}-2H-indazol-2-yl)-1-phenylethan-1-ol] the value was 26 K; for `Cc1nc2nn(CCN(C)C)cc2cc1-n1nc(-c2cccc3nn(C[C@H](O)c4ccccc4)cc23)c(C(C)C)c1C` [Example 39, (1R)-2-[4-(1-{2-[2-(dimethylamino)ethyl]-6-methyl-2H-pyrazolo[3,4-b]pyridin-5-yl}-5-methyl-4-(propan-2-yl)-1H-pyrazol-3-yl)-2H-indazol-2-yl]-1-phenylethan-1-ol], 25 K; for `Cc1c(C(C)C)c(-c2cccc3nn(C[C@H](O)c4ccccc4)cc23)nn1-c1cc2cn(C)nc2nc1C(C)O` (stereo partly drawn) [Example 19, (1R)-2-(4-{1-[6-(1-hydroxyethyl)-2-methyl-2H-pyrazolo[3,4-b]pyridin-5-yl]-5-methyl-4-(propan-2-yl)-1H-pyrazol-3-yl}-2H-indazol-2-yl)-1-phenylethan-1-ol], 29 K. For the compound `Cc1c(C2CC2)c(-c2cccc3nn(C[C@H](O)c4ccccc4)cc23)nn1-c1cc2cn(C)nc2nc1C1CC1` [Example 29, (1R)-2-[4-(4-cyclopropyl-1-{6-cyclopropyl-2-methyl-2H-pyrazolo[3,4-b]pyridin-5-yl}-5-methyl-1H-pyrazol-3-yl)-2H-indazol-2-yl]-1-phenylethan-1-ol], the DSF came out at 29 K. To `Cc1c(C(C)C)c(-c2cccc3nn(C[C@H](O)c4ccccc4)cc23)nn1-c1cc2cn(C)nc2nc1C1CCCN1` (stereo partly drawn) [Example 111, (1R)-2-(4-{5-Methyl-1-[2-methyl-6-(pyrrolidin-2-yl)-2H-pyrazolo[3,4-b]pyridin-5-yl]-4-(propan-2-yl)-1H-pyrazol-3-yl}-2H-indazol-2-yl)-1-phenylethan-1-ol] belongs 24 K.
